Experimental data published in US11479552B2, “Substituted piperidine compounds and their use” (Eisai R&D Management Co., Ltd., priority 2020, dated 2022).

Key:
Male C57BL/6NCrl mice = assay: Test Example 2: Increase in spontaneous movement; format: in vivo; conditions: orally administered 10 mg/kg, measured 2 hours after administration, control group as 100%
Procedure: Similar to increase in body temperature or increase in cardiovascular parameters such as blood pressure, increased movement in mice is one of indicator for wakefulness. In this test example, the alertness effect was evaluated by measuring spontaneous movement of the mice. Male C57BL/6NCrl mice (18-19 weeks old, Charles River Laboratories, Japan Inc., 4 mice in each group) were used for the experiment. Spontaneous movement was measured by using a movement measuring device (VersaMax Oven Field, AccuScan Instruments, Inc.), irradiating infrared rays from the side sections of the measuring cage, and quantifying the number of times that the mice passed through the irradiation. After placing the mice in the measuring cage and conditioning for 3 hours, the compound was orally administered (10 mg/kg). Spontaneous movement was measured 2 hours after administration. The test compound-administered group was administered a solution of the test compound dissolved in 0.1 moL/L hydrochloric acid containing 5% (v/v) DMSO and 5% (v/v) Kolliphor™ EL. For the control group, solvent alone without the test compound was administered to the mice.
Spontaneous movement was represented as a percentage for the test compound-administered group, with spontaneous movement in the control group as 100%.

[1] = system: orexin/ataxin-3 Tg/+ mice; assay: Test Example 4: Wake-promoting effect and cataplexy-free state elongation in orexin-deficient mice (EEG/EMG); format: in vivo; conditions: oral; for DREM latency: cut-off 4 hours
Procedure: The experimental animals used were orexin/ataxin-3 Tg/+ mice (hereunder referred to as “Tg mice”, Ham et al., Neuron, 30,345-54,2001) with a C57BL/6 genetic background. Electroencephalogram and electromyogram measuring electrodes were surgically embedded into 12-week-old mice (±2 weeks) under isoflurane anesthesia. The solvent (0 mg/kg) or a solution of a sample (compound of Example 1 dissolved in the solvent: 0.3, 1 or 3 mg/kg) was orally administered 30 to 15 minutes before lighting was turned off. The solvent used was a 0.1 moL/L hydrochloric acid solution containing 5% (v/v) DMSO and 5% (v/v) Kolliphor™ EL. The electroencephalogram and electromyogram were recorded for about 24 hours, from 1 hour before lighting was turned off. The mice were repeatedly used, with a washout period of 2 days or longer. The electroencephalogram and electromyogram data obtained for each mouse were used to assess the sleep stage every epoch (10 seconds), using sleep analysis software (SleepSign: Kissei Comtec Co., Ltd.), up to a maximum of 4 hours (cut-off value). For the purpose of this experiment, cataplexy-like symptoms were defined as REM sleep appearing immediately after wakefulness (direct transition from wake to REM sleep (DREM)) for a contiguous period of 4 epochs or longer. DREM in mice is an analog of cataplexy (Exp Neurol. 2009; 217:46-54). The time until initial sleep appeared after lighting out for each mouse (sleep for contiguous 8 epochs or longer, excluding DREM)(sleep onset latency) and the time until initial DREM appeared (DREM latency) were measured. The numbers of mice were 14 in the vehicle group and Example 1 compound-administered groups. The sleep onset latency and DREM latency in a vehicle control group and a compound-administered group were compared by a Dunnet-type multiple comparison test following survival time analysis in consideration of the number of experiments and use of the same individuals, with a significance level of 5% at both ends for each.

[2] = system: C57BL/6 line wild type (WT) male mice; assay: Test Example 3: Wake-promoting effect by oral administration to wild type mice (EEG/EMG); format: in vivo
Procedure: The experimental animals used were C57BL/6 line wild type (WT) male mice. Electroencephalogram and electromyogram measuring electrodes were surgically embedded into 13-week-old mice under isoflurane anesthesia. The solvent (0 mg/kg) or a solution of the compound of Example 1 dissolved in the solvent (1, 3 or 10 mg/kg) was orally administered 30 to 15 minutes before lighting was turned off. The solvent used was a 0.1 moL/L hydrochloric acid solution containing 5% (v/v) DMSO and 5% (v/v) Kolliphor™ EL. The electroencephalogram and electromyogram were recorded for about 24 hours, from 1 hour before lighting was turned off. The mice were repeatedly used, with a washout period of 2 days or longer. The electroencephalogram and electromyogram data obtained for each mouse were used to assess the sleep stage every epoch (10 seconds), using sleep analysis software (SleepSign: Kissei Comtec Co., Ltd.). […] Using 16 mice in each administered group, the sleep onset latency in a solvent-administered group (control group) and an Example 1 compound-administered group were compared by a Dunnet-type multiple comparison test following survival time analysis in consideration of the number of experiments and use of the same individuals, with a significance level of 5% at both ends for each.

hOX1R = hOX1R (Homo sapiens (Human), UniProt O43613); assay: Test Example 1-2: Evaluation of activating activity for OX1R (calcium flux, HEK293 with forced expression); format: cell-based; conditions: HEK293 cells expressing hOX1R; intracellular calcium; 30 nM OX-A as 100%; up to 1×10^−5 M
Procedure: (§1) Human Embryonic Kidney cells 293 (HEK293) cells with forced expression of hOX1R or hOX2R were seeded in a 384-well microplate (Greiner) at 10,000 per well and cultured for 1 day in high-glucose-DMEM (FujiFilm Corp.—Wako Pure Chemical Industries, Ltd.) containing added 10% FBS (Thermo Scientific) and 1% Penicillin-Streptomycin (FujiFilm Corp.—Wako Pure Chemical Industries, Ltd.). After removing the medium, 30 μL of assay buffer (20 mM HEPES (Sigma-Aldrich Japan, KK.), Hank's balanced salt solution (Gibco), 0.1% BSA (Sigma-Aldrich Japan, KK.), 0.1% Pluronic F-127 (Invitrogen)) containing Calcium 4 dye (Molecular Device Corporation) and 2.5 mM probenecid (Sigma-Aldrich Japan, KK.) were added, and the mixture was incubated for 60 minutes. A 30 μL portion of assay buffer containing the test compound was added and reaction was initiated. Change in intracellular calcium ion concentration by the reaction was measured based on the fluorescence intensity ratio in terms of the fluorescence value with […], using FDSS7000 (Hamamatsu Photonics, K.K.). The test compound was dissolved in DMSO to 10 mM, and diluted with assay buffer to a final concentration of from 3×10^−11 M to 1×10^−5 M (DMSO final concentration of 0.1%). The EC50 value was determined from the fluorescence value with addition of the test compound at different concentrations, with the fluorescence value of the well with compound-free buffer added as 0%, and the fluorescence value of the well with 30 nM OX-A (Peptide Research Lab) as 100%.

hOX2R = hOX2R (Homo sapiens (Human), UniProt O43614); assay: Test Example 1-2: Evaluation of activating activity for OX2R (calcium flux, HEK293 with forced expression); format: cell-based; conditions: HEK293 cells expressing hOX2R; intracellular calcium; 30 nM OX-A as 100%; up to 1×10^−5 M
Procedure: as §1

human OX2R (hOX2R) = human OX2R (hOX2R) (Homo sapiens (Human), UniProt O43614); assay: Test Example 1-1: Evaluation of activity for OX2R (calcium flux, HEK293 with forced expression); format: cell-based; conditions: HEK293 cells expressing hOX2R; intracellular calcium; 10 nM OX-A as 100%; up to 1×10^−7 M
Procedure: HEK293 (human embryonic kidney 293) cells with forced expression of human OX1R (hOX1R) or human OX2R (hOX2R) were seeded in a 384-well microplate (Greiner) at 10,000 per well and cultured for 1 day in high-glucose-DMEM (FujiFilm Corp.—Wako Pure Chemical Industries, Ltd.) containing added 10% FBS (Tenno Scientific) and 1% Penicillin-Streptomycin (FujiFilm Corp.—Wako Pure Chemical Industries, Ltd.). After removing the medium, 40 μL of assay buffer (20 mM HEPES (Sigma-Aldrich Japan, KK.), Hanks' balanced salt solution (Gibco), 0.1% BSA (Sigma-Aldrich Japan, KK.), 0.1% Pluronic F-127 (Invitrogen)) containing Calcium 4 dye (Molecular Device Corporation) and 2.5 mM probenecid (Sigma-Aldrich Japan, KK.) were added, and the plate was incubated for 60 minutes. After further adding 20 μL of assay buffer, 20 μL of assay buffer containing the test compound was added and reaction was initiated. Change in intracellular calcium ion concentration during the reaction was measured based on the fluorescence intensity ratio in terms of the fluorescence value with wavelength excitation at 480 nm and detection at 540 nm, using FDSS7000 (Hamamatsu Photonics, K.K.). The test compound was dissolved in DMSO to 10 mM, and diluted with assay buffer to a final concentration of from 3×10^−11 M to 1×10^−7 M (DMSO final concentration of 0.1%). […]

hOX1R, sequence (O43613 whole entry): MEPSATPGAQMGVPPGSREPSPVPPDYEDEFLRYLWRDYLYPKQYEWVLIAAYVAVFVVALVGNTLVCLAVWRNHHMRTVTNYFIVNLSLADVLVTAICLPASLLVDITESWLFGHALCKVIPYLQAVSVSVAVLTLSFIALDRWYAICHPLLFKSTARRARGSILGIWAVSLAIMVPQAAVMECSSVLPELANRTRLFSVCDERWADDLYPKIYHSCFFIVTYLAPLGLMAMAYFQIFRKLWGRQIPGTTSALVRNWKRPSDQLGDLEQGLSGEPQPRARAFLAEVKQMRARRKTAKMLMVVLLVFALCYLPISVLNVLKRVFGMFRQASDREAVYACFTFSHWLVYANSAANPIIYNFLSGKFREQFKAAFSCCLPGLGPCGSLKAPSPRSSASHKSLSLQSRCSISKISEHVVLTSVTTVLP
hOX2R, sequence (O43614 whole entry): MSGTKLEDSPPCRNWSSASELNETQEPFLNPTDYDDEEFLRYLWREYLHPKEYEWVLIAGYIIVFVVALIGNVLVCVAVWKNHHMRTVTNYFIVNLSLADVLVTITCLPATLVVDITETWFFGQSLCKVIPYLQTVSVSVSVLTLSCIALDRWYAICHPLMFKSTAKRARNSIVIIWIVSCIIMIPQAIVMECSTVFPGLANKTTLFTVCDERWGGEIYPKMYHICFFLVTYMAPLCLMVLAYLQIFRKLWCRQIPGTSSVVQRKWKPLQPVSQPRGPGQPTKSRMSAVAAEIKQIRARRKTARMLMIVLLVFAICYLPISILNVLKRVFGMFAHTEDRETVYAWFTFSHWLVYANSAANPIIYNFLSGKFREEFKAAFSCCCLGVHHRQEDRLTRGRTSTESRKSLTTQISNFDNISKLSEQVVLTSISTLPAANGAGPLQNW
human OX2R (hOX2R), sequence (O43614 whole entry): as above

`CO[C@@H]1CN(c2ncc(F)cn2)CC[C@@H]1[C@@H]1C[C@H]2CC[C@@H](C1)N2[C@@H](C(N)=O)C1CC1` [Example 1, (R)-2-cyclopropyl-2-((1R,3S,5S)-3-((3S,4R)-1-(5-fluoropyrimidin-2-yl)-3-methoxypiperidin-4-yl)-8-azabicyclo[3.2.1]octan-8-yl)acetamide] was tested, and the “Spontaneous movement (% of Control)” value (Male C57BL/6NCrl mice) was 865 % of Control, the sleep onset latency ([1]; 0.3 mg/kg) was 0.31 h and the DREM latency ([1]; 0.3 mg/kg) was 1.50 h. The sleep onset latency ([1]; 1 mg/kg) was 0.64 h, the DREM latency ([1]; 1 mg/kg) was 2.26 h and the sleep onset latency ([1]; 3 mg/kg) was 2.42 h. It also gave a DREM latency ([1]; 3 mg/kg) of 4.00 h, a sleep onset latency ([2]; 1 mg/kg) of 0.28 h and a sleep onset latency ([2]; 3 mg/kg) of 0.44 h. The sleep onset latency ([2]; 10 mg/kg) was 2.07 h, the EC50 (hOX1R) was 4.7 µM and the EC50 (hOX2R) was 2.3 nM. It also gave an EC50 (human OX2R (hOX2R)) of 0.99 nM.
In the case of `CO[C@@H]1CN(c2ncc(F)cn2)CC[C@@H]1[C@@H]1C[C@H]2CC[C@@H](C1)N2[C@@H](C(N)=O)C(C)C` [Example 2, (R)-2-((1R,3S,5S)-3-((3S,4R)-1-(5-fluoropyrimidin-2-yl)-3-methoxypiperidin-4-yl)-8-azabicyclo[3.2.1]octan-8-yl)-3-methylbutaneamide], the “Spontaneous movement (% of Control)” value (Male C57BL/6NCrl mice) is reported as 253 % of Control.
With `CCO[C@@H]1CN(c2ncc(Cl)cn2)CC[C@@H]1[C@@H]1C[C@H]2CC[C@@H](C1)N2[C@@H](C(N)=O)C1CC1` [Example 3, (R)-2-((1R,3S,5S)-3-((3S,4R)-1-(5-chloropyrimidin-2-yl)-3-ethoxypiperidin-4-yl)-8-azabicyclo[3.2.1]octan-8-yl)-2-cyclopropyl acetamide] the EC50 (hOX1R) was 1.4 µM and the EC50 (hOX2R) was 4.3 nM.
`C[C@H]1C[C@@H]([C@@H]2C[C@H]3CC[C@@H](C2)N3[C@@H](C(N)=O)C2CC2)CCN1c1ncc(F)cn1` [Example 4, (R)-2-cyclopropyl-2-((1R,3S,5S)-3-((2S, 4S)-1-(5-fluoropyrimidin-2-yl)-2-methylpiperidin-4-yl)-8-azabicyclo[3.2.1]octan-8-yl)acetamide] gave an EC50 (hOX1R) of 3.9 µM and an EC50 (hOX2R) of 4.4 nM.
